Results as given in publication PMC12736270, “Application of Data-Centric Supervised Machine Learning to Predict Phenotypic Activity Against Clinically Relevant Stages of Trypanosoma cruzi” (Pharmaceutics, 2025).
Entries after “also recorded” stand apart in the source; their conditions may differ. Like-named read-outs stand apart in the source and are kept apart here.

Tests used:
[1] = tested on: trypomastigotes of the K98 strain (TcI); assay: Trypanocidal effect on K98 strain trypomastigotes (motile parasite count); assay type: cell-based, Trypanosoma cruzi; settings: 24 h of incubation
Procedure: (§1) For the evaluation of the trypanocidal effect of selected drugs on trypomastigotes, assays were performed using culture-derived trypomastigotes of the T. cruzi Y and K98 strains. Parasites were incubated in 96-well plates at a density ranging from 5 × 10^5 to 1 × 10^6 trypomastigotes per well, in a final volume of 100 μL of MEM supplemented with 5% serum. Test compounds were previously dissolved in dimethyl sulfoxide (DMSO) and added to the wells so that the final DMSO concentration was 1%. Wells containing 1% DMSO were used as vehicle controls, and 10 μM BZN served as a positive control. In the case of the Y strain, after 24 h of incubation at 37 °C, 10 μL of resazurin solution was added to reach a final concentration of 0.01 mg/mL. Plates were incubated for approximately 4 h at 37 °C to allow fluorescence development, and readings were performed in a microplate reader with excitation and emission wavelengths of 530 nm and 590 nm, respectively. To calculate EC50 in trypomastigotes, six points were used in a concentration range of 5 to 100 μM. At least three independent assays were performed. In the case of the K98 strain, after 24 h of incubation, motile parasites were counted in a hemocytometer chamber under a light microscope. Controls consisted of RPMI-1640 supplemented with 5% FBS as well as RPMI-1640 with 0.1% DMSO. At least three independent assays were performed.

[2] = tested on: culture-derived trypomastigotes of the T. cruzi Y strain; assay: Trypanocidal effect on Y strain trypomastigotes (resazurin viability); assay type: cell-based, Trypanosoma cruzi; settings: for Activity on Y Trypomastigotes: tested at 10 µM and 50 µM, 24 h
Procedure: as §1

Vero cells = assay: Cytotoxicity against Vero cells; assay type: cell-based; settings: for CC50 Vero Cells: Not toxic = no toxic effect observed up to 50 µM
[3] = tested on: intracellular amastigotes of the Tulahuen strain; assay: Intracellular amastigote assay, Tulahuen β-galactosidase strain in Vero cells; assay type: cell-based, Trypanosoma cruzi; settings: for EC50: Trypanosoma cruzi, TULAHUEN, read-out: Activity on Tul Amastigotes; for activity on intracellular amastigotes: Tulahuen strain, infected Vero cells
Procedure: To evaluate the trypanocidal effect of the selected compounds on intracellular amastigotes, the drug screening method reported by Buckner et al. was adapted. Vero cells were seeded at 1 × 10^4 per well on a 96-well culture plate in 100 μL MEM-5% FBS. Tulahuen trypomastigotes overexpressing the E. coli β-galactosidase protein (LacZ clone C4 strain—ATCC® PRA-330™, ATCC, Manassas, VA, USA) were used to infect Vero cell monolayers (MOI: 10:1) in triplicate. After 2 h incubation at 37 °C, the culture media were removed and non-internalized parasites were eliminated by washing each well with at least 10 vol of sterile PBS 1X, after which fresh MEM-5% FBS was added. After 16–18 h, the culture medium was replaced with culture medium bearing the compounds to be tested at the desired concentration. Test compounds were prepared in DMSO, ensuring a final DMSO concentration of 1%. Cells treated with 1% DMSO were used as vehicle controls. To determine the IC50, each drug was evaluated in at least six different concentrations (usually 0.78, 1.56, 3.13, 6.25, 12.5, and 50.0 μM). The plate was further incubated for another 72 h at 37 °C, after which the culture media were removed and cells and intracellular amastigotes were lysed in 100 μL lysis buffer (25 mM Tris pH 8, 2 mM EDTA, 2 mM DTT, 1% Triton X-100, 10% glycerol in ultrapure MQ water) for 10 min at 37 °C. Then, 100 μL 2X reaction buffer (200 mM sodium phosphate, pH 8, 2 mM MgCl2, 100 mM 2-mercaptoethanol, and 1.33 mg.mL^−1 o-nitrophenyl-β-galactoside (ONPG)) was added, and the reaction was allowed to proceed until a yellow color developed (1–2 h at 37 °C). The absorbance at 420 nm was measured in a Synergy HTX multi-mode microplate reader (Biotek Instruments, Winooski, VT, USA) and normalized to the value obtained for the infection in the absence of inhibitors. IC50 for BZN was also evaluated following this method (concentrations evaluated: 0.10, 0.20, 0.39, 0.78, 1.56, 3.13, 6.25, 12.5, and 50.0 μM). Uninfected cells were included as blanks. Each compound was tested in at least two independent experiments.

[4] = set-up: method as in PMID 37061109; settings: phase III clinical trial, non-alcoholic steatohepatitis; cited from earlier work
[5] = Cytotoxicity against Vero cells; assay type: cell-based; settings: African green monkey, Vero cells; Not toxic = no toxic effect observed up to 50 µM
[6] = intracellular amastigotes infecting Vero cells, 72 h
[7] = * not reliable because of the simultaneous toxic effect against Vero cells

SMILES	Activity on Y Trypomastigotes [2]	cytotoxic effects on Vero cells (Vero cells)	CC50 Vero Cells (Vero cells)	EC50 [3, 6]	activity on intracellular amastigotes [3]	also measured
C=CC[C@]1(O)CC[C@H]2[C@@H]3CCC4=CC(=O)CCC4=C3C=C[C@@]21C [Altrenogest]	did not exhibit detectable activity; also recorded: Not active					EC50 on K98 Trypomastigotes [1]: Not active
CCCCOCCOc1ccc(-c2ccc3c(c2)/C=C(/C(=O)Nc2ccc([S@@+]([O-])Cc4cncn4CCC)cc2)CCCN3CC(C)C)cc1 [Cenicriviroc]		did not present cytotoxic activity	Not toxic	4.76 µM	active	selectivity index ([3]; intracellular amastigotes versus Vero cells): greater than 10; primary efficacy endpoints for fibrosis [4]: did not meet its primary efficacy endpoints
C[C@]12CCC3=C4CCC(=O)C=C4CC[C@H]3[C@@H]1CC[C@@]2(O)CC#N [Dienogest]	did not exhibit detectable activity; also recorded: Not active					EC50 on K98 Trypomastigotes [1]: Not active
Cc1ccc(-n2nc(C(C)(C)C)cc2NC(=O)Nc2ccc(OCCN3CCOCC3)c3ccccc23)cc1 [Doramapimod]		did not present cytotoxic activity	Not toxic	11 µM	active	
COCCNCc1ccc(-c2cc3nccc(Oc4ccc(NC(=S)NC(=O)Cc5ccc(F)cc5)cc4F)c3s2)nc1 [Glesatinib]		cytotoxic effects				CC50 [5]: ~25 µM; EC50 [3, 7]: 6.49 µM
CC(F)(F)c1cc(F)ccc1-c1sc2cc(O)ccc2c1Oc1ccc(/C=C/C(=O)O)cc1 [LSZ-102]		did not present cytotoxic activity	Not toxic	19.4 µM	active	
CC#C[C@]1(O)CC[C@H]2[C@@H]3CCC4=CC(=O)CCC4=C3[C@@H](c3ccc(N(C)C)cc3)C[C@@]21C [Mifepristone]	Active					EC50 ([1]; Trypanosoma cruzi): 17.9 µM; reduction in parasite viability ([2]; 50 µM, after 24 h of incubation, Y strain): 69.5%
CC1(C)CCC(c2ccc(Cl)cc2)=C(CN2CCN(c3ccc(C(=O)NS(=O)(=O)c4ccc(N[C@H](CCN5CCOCC5)CSc5ccccc5)c(S(=O)(=O)C(F)(F)F)c4)cc3)CC2)C1 [Navitoclax]		cytotoxic effects				CC50 [5]: 6.03 µM; EC50 [3, 7]: 2.14 µM
